{
  "source": "patent US20070173450A1",
  "about": "“PROCESS FOR THE SYNCHRONIZATION OF OVULATION FOR TIMED BREEDING WITHOUT HEAT DETECTION” (priority 2003, published 2007)",
  "assay_type_in_all_cases": "in vivo, swine",
  "key": {"mature postpartum sows": {"system": "mature postpartum sows", "experiment": "Intravulvar deslorelin at estrus detection in mature postpartum sows, AI breeding", "settings": "live piglets born per litter, treated versus control", "experimental": "Sows were assigned randomly in blocks of two to either control or to be injected intravulvar with 50 mcg of deslorelin in SAIB at the time of estrus detection for sows first detected in estrus in the a.m. and 12 hours later for those first detected in estrus in the p.m. Treated animals were bred AI upon detected estrus and again 24 hours later if still in estrus. Controls received a saline injection on first detected estrus behavior estrus detection and were bred according to the farm's normal procedures."}, "postpartum sows [1]": {"system": "postpartum sows", "experiment": "Single timed deslorelin injection 96 h post-weaning, single timed insemination without estrus detection", "settings": "50 mcg deslorelin in SAIB 96 h post-weaning", "experimental": "Approximately 170 postpartum sows were randomly divided into two equal groups comprised of controls and treated. Following weaning, the controls were detected for estrus and bred following the normal standard operating procedures for the farms on which they resided. The treated sows received a 50 mcg dose of deslorelin in SAIB at 96 hours post-weaning and were bred with a single insemination 28+/−2 hours later with no regard to estrus detection. The sows were examined for pregnancy by ultrasound at 21 days and slaughtered around 28 days post breeding. The entire reproductive tract was removed and corpora lutea and embryos were counted."}, "postpartum sows [2]": {"system": "postpartum sows", "experiment": "Litter size after deslorelin treatment in sows at three farm sites", "settings": "Tables 3-5, three farm sites, regardless of estrus detection", "source_text": "Postpartum sows were randomly distributed into three different groups comprised of Controls, Treatment 1, and Treatment 2, with the exception of Site 3, which was divided into two groups, Control and Treatment 2. Control sows were detected for estrus following weaning, and bred following the normal standard operating procedures for the farms on which they resided. Treatment 1 sows were detected for estrus following weaning, and received a 50 mcg dose of deslorelin in the morning when standing and were bred by AI 4 hours later and again at 24+/−2 hours later. Treatment 2 sows received a 50 mcg dose of deslorelin in SAIB at 96 or 120 hours post-weaning and were bred with a single insemination 28+/−2 hours later with no regard to estrus detection."}},
  "data": [
    {"smiles": "CCNC(=O)[C@@H]1CCCN1C(=O)[C@H](CCCN=C(N)N)NC(=O)[C@H](CC(C)C)NC(=O)[C@@H](Cc1c[nH]c2ccccc12)NC(=O)[C@H](Cc1ccc(O)cc1)NC(=O)[C@H](CO)NC(=O)[C@H](Cc1c[nH]c2ccccc12)NC(=O)[C@H](Cc1cnc[nH]1)NC(=O)[C@@H]1CCC(=O)N1", "note": "[Deslorelin, deslorelin]", "values": [
      {"measurement": "Live piglet number, Deslorelin versus Saline sows (greater by)", "setting": "mature postpartum sows", "value": "Live piglet number 0.6> in Deslorelin versus Saline sows."},
      {"measurement": "Pregnancy Rate", "setting": "postpartum sows [1]; single AI 28+/-2 h later, no estrus detection", "value": 71, "unit": "%"},
      {"measurement": "Embryo Survival", "setting": "postpartum sows [1]; slaughter around 28 days post breeding", "value": 64, "unit": "%"},
      {"measurement": "Sows Pregnant", "setting": "postpartum sows [1]; of 84 in group, single AI 28+/-2 h later, no estrus detection", "value": 60},
      {"measurement": "litter sizes (in words)", "setting": "postpartum sows [2]", "value": "normal litter sizes"}
    ]}
  ]
}
